This passage reports TGI and GI50 results from PubChem BioAssay (NCI).

Molecules are shown by their SMILES.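 Assay format: 96-well plates, 48-hour exposure. Here, GI50 denotes the concentration required for 50% inhibition of growth. TGI marks complete inhibition of growth.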

Some test systems named below: NCI/ADR-RES ovarian; SK-MEL-2 melanoma; SW-620 colon; HCC-2998 colon; MDA-MB-435; TK-10 renal; NCI-H522 lung; UO-31 renal; HS 578T breast; A498 renal.
Common to all, as to assay: DTP human tumour cell line panel, 48 h

Usually TGI stands for the concentration at which net growth stops. Low values mean greater sensitivity of the cells, high ones lower sensitivity of the cells. `ClCc1c(-c2ccccc2)nn(-c2ccccc2)c1CCl`: the TGI was over 100 µM in the test on NCI/ADR-RES ovarian; 26.5 µM in the test on SK-MEL-2 melanoma; 5.21 µM in the test on SW-620 colon; 26.8 µM in the test with HCC-2998 colon; 6.42 µM with MDA-MB-435; 29.2 µM in the test on TK-10 renal. For the same compound, the values for the TGI in the test with NCI-H522 lung and with UO-31 renal were 0.416 µM and 45 µM, respectively.
On to `CN(C)CCCNC(=O)c1cc(NC(=O)c2cc(NC(=O)c3cc(NC(=O)CCCn4ccc(CO)c4CO)cn3C)cn2C)cn1C`, for which the TGI in the test with NCI/ADR-RES ovarian was over 100 µM; in the test on SK-MEL-2 melanoma, 77 µM; with SW-620 colon, over 100 µM; in the test with HCC-2998 colon, over 100 µM; in the test on MDA-MB-435 it was 47.7 µM; in the test with HS 578T breast, 98.2 µM. Moreover, the TGI is 72.4 µM in the test with TK-10 renal, 8.38 µM with NCI-H522 lung and over 100 µM in the test with UO-31 renal.
On to `CCCCNC(=S)/N=C/c1c(O)c2ccccc2oc1=O`, for which the TGI in the test with NCI/ADR-RES ovarian, in the test with SK-MEL-2 melanoma, in the test with SW-620 colon, in the test on HCC-2998 colon, in the test with MDA-MB-435 and with TK-10 renal was over 100 µM each time. In the test with UO-31 renal, this compound came in with a TGI of over 100 µM.
For the compound `COc1ccc(C2C(C(=O)O)=C(COC(C)=O)Oc3cc4c(cc32)OCO4)cc1` (stereo not given), the TGI in the test on SW-620 colon, in the test on TK-10 renal and in the test on UO-31 renal was over 100 µM each time.
Regarding `O=C(Nc1ccc2ccccc2c1)Nn1cnnc1`, the concentration for total growth inhibition (TGI) in the test with A498 renal, with SK-MEL-2 melanoma, with SW-620 colon, in the test on HCC-2998 colon, in the test on MDA-MB-435 and in the test with HS 578T breast was over 100 µM throughout. In addition, the TGI with TK-10 renal, in the test on NCI-H522 lung and with UO-31 renal was over 100 µM each time.
For `C=CCN1CC2CN=NC2(C#N)C1` (stereo not given), the TGI with NCI/ADR-RES ovarian, with A498 renal, with SK-MEL-2 melanoma, with SW-620 colon, in the test on HCC-2998 colon and with MDA-MB-435 was over 100 µM in each case. The TGI with TK-10 renal, with NCI-H522 lung and in the test with UO-31 renal was over 100 µM in each case.
With `Cc1cc(S(=O)(=O)O)ccc1N=Nc1ccc(N=Nc2c(O)ccc3ccccc23)c(C)c1`, the TGI in the test with NCI/ADR-RES ovarian, with SK-MEL-2 melanoma, in the test with SW-620 colon, with MDA-MB-435, in the test on HS 578T breast and with TK-10 renal was over 100 µM in each case. For the same compound, the TGI was 68.5 µM in the test with NCI-H522 lung and over 100 µM in the test on UO-31 renal.
Consider `CC1NOC(NS(=O)(=O)c2ccc(N=Nc3c(O)c(C(=O)O)cc4ccccc34)cc2)C1C` (stereo not given), for which the TGI with NCI/ADR-RES ovarian, with SK-MEL-2 melanoma, in the test on SW-620 colon, in the test with HCC-2998 colon, in the test with MDA-MB-435 and in the test on HS 578T breast was over 100 µM each time. Further, the total growth inhibition concentration (TGI) with TK-10 renal, with NCI-H522 lung and in the test on UO-31 renal was over 100 µM throughout.
On to `O=c1c2cc(-c3ccccc3)cnc2sn1-c1ccc([N+](=O)[O-])cc1`, for which the TGI in the test with NCI/ADR-RES ovarian, in the test with A498 renal, in the test with SK-MEL-2 melanoma, in the test with SW-620 colon, in the test with HCC-2998 colon and in the test with MDA-MB-435 was over 100 µM throughout. The figures for the TGI in the test on NCI-H522 lung and in the test on UO-31 renal were 75.4 µM and over 100 µM, respectively.
Take `N=C(N)n1[nH]c2c(c1=O)CCC2`: the TGI in the test on NCI/ADR-RES ovarian, in the test with SK-MEL-2 melanoma, with SW-620 colon, in the test on HCC-2998 colon, with MDA-MB-435 and in the test with HS 578T breast was over 100 µM in each case. Further, the TGI in the test with TK-10 renal, with NCI-H522 lung and in the test with UO-31 renal was over 100 µM in each case.
For the compound `Cc1cc2nc3n(c2cc1C)C(c1c(F)cccc1F)SC3` (stereo not given), the concentration for total growth inhibition (TGI) is 34.6 µM in the test on NCI/ADR-RES ovarian; 39.7 µM in the test with SK-MEL-2 melanoma; 50.9 µM in the test with SW-620 colon; 47.8 µM in the test on HCC-2998 colon; 30.9 µM in the test on MDA-MB-435; 54.2 µM in the test with HS 578T breast. For the same compound, the TGI is over 100 µM in the test on TK-10 renal, 44.1 µM in the test on NCI-H522 lung and over 10 µM in the test with UO-31 renal.
For `CCN(CC)C(=O)c1c(N2CCOCC2)cc(N(CC)CC)oc1=O`, the TGI with A498 renal, in the test with SK-MEL-2 melanoma, in the test with SW-620 colon, with HCC-2998 colon, in the test with TK-10 renal and in the test with NCI-H522 lung was over 100 µM each time. The TGI in the test on UO-31 renal was over 100 µM.
For orientation: GI50 means the concentration that inhibits growth by half. As for `NCCCn1c2c(c3ccc([N+](=O)[O-])cc3c1=O)C(=O)c1cc3c(cc1-2)OCO3`, the GI50 is 592 nM with MDA-MB-435, 1830 nM with TK-10 renal and under 10 nM in the test on UO-31 renal. In addition, the results for the TGI with MDA-MB-435, with TK-10 renal and in the test on UO-31 renal were 3.28 µM, 4.98 µM and 0.2 µM, respectively.
`NCCCCNCCCN`: the TGI in the test on NCI/ADR-RES ovarian, in the test on A498 renal, in the test with SK-MEL-2 melanoma, in the test with SW-620 colon, in the test with HCC-2998 colon and in the test on MDA-MB-435 was over 100 µM throughout. Besides, the TGI in the test on TK-10 renal, in the test on NCI-H522 lung and with UO-31 renal was over 100 µM throughout.
For `CC(=O)Oc1ccc(OC(Oc2ccccc2)c2ccccc2)cc1` (stereo not given), the TGI in the test on NCI/ADR-RES ovarian was 90.3 µM; with A498 renal, 43.5 µM; with SW-620 colon, over 100 µM; in the test on HCC-2998 colon, 39.7 µM; in the test on MDA-MB-435 it was 94.3 µM; with TK-10 renal, over 100 µM. The TGI came out at 96.4 µM with NCI-H522 lung and 88.9 µM with UO-31 renal.
Regarding `C[C@]12CCC(=O)C=C1CC[C@@H]1[C@@H]2C(=O)C[C@@]2(C)[C@H]1CC[C@]2(O)C(=O)CO`, the concentration for total growth inhibition (TGI) in the test on A498 renal, in the test with SK-MEL-2 melanoma, with SW-620 colon, in the test on HCC-2998 colon, in the test with TK-10 renal and in the test with NCI-H522 lung was over 100 µM throughout. The compound also displayed a TGI with UO-31 renal of over 100 µM.
